Experimental data: PMC5513037, “Examining the influence of specificity ligands and ATP-competitive ligands on the overall effectiveness of bivalent kinase inhibitors” (Proteome Science, 2017)
pIC50: −log10 of the molar value.

Columns and labels:
Test in all cases: KAM-matrix competition in K562 lysate;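 as to 0.001 uM KAM: median log10 fold change of treatment over DMSO control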;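 as to 0.01 uM KAM: median log10 fold change of treatment over DMSO control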;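 as to 0.1 uM KAM: median log10 fold change of treatment over DMSO control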;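 as to 1 uM KAM: median log10 fold change of treatment over DMSO control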;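 as to 10 uM KAM: median log10 fold change of treatment over DMSO control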
Assay type in all cases: binding
[1] = biological target: T1, IRAK1 (Homo sapiens, UniProt P51617);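 as to 0.001 uM KAM: median log10 fold change of treatment over DMSO control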;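 as to 0.01 uM KAM: median log10 fold change of treatment over DMSO control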;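 as to 0.1 uM KAM: median log10 fold change of treatment over DMSO control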;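 as to 1 uM KAM: median log10 fold change of treatment over DMSO control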;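 as to 10 uM KAM: median log10 fold change of treatment over DMSO control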
T1 construct: endogenous in cells; host or cells: K562
Method: (§1) Supplement 12953_2017_125_MOESM1_ESM.zip/MS_Supp Info.xlsx, sheet "KAM" | column: 10 uM KAM; 1 uM KAM; 0.1 uM KAM; 0.01 uM KAM; 0.001 uM KAM; RB50

[2] = biological target: T2, ULK2 (Homo sapiens, UniProt Q8IYT8);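 as to 0.001 uM KAM: median log10 fold change of treatment over DMSO control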;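 as to 0.01 uM KAM: median log10 fold change of treatment over DMSO control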;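 as to 0.1 uM KAM: median log10 fold change of treatment over DMSO control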;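 as to 1 uM KAM: median log10 fold change of treatment over DMSO control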;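 as to 10 uM KAM: median log10 fold change of treatment over DMSO control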
T2 construct: endogenous in cells; host or cells: K562
T2 sequence (Q8IYT8 1-1036): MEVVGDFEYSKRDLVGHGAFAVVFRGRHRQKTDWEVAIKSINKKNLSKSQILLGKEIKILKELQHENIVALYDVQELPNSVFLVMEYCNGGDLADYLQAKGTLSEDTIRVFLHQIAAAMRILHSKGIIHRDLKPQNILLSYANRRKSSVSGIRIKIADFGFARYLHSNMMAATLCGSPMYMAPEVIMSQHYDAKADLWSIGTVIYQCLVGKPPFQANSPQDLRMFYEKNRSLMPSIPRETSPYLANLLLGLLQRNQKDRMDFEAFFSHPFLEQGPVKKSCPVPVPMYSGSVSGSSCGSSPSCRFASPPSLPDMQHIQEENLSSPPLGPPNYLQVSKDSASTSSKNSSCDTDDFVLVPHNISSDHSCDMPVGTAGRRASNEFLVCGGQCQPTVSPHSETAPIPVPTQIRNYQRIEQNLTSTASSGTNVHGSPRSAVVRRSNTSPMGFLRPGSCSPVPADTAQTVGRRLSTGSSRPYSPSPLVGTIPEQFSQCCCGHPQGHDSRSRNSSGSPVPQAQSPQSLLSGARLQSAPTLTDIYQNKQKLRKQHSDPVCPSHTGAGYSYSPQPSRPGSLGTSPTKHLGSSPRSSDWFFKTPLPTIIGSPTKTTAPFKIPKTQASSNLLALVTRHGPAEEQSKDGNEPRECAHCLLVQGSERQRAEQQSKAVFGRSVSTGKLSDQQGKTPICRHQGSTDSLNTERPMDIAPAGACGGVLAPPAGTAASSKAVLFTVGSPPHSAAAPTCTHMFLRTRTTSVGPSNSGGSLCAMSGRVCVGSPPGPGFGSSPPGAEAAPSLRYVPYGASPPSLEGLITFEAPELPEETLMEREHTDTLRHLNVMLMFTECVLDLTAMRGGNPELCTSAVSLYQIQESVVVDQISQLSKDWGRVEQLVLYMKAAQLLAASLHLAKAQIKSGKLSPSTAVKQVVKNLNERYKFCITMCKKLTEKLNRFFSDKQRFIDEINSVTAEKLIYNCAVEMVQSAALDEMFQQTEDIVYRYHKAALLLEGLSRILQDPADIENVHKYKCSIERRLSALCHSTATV
Method: as §1

[3] = biological target: T3, FYN (Homo sapiens, UniProt P06241)
T3 construct: endogenous in cells; host or cells: K562
Method: as §1

[4] = biological target: T4, NEK2 (Homo sapiens, UniProt P51955);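 as to 0.001 uM KAM: median log10 fold change of treatment over DMSO control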;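 as to 0.01 uM KAM: median log10 fold change of treatment over DMSO control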;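 as to 0.1 uM KAM: median log10 fold change of treatment over DMSO control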;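 as to 1 uM KAM: median log10 fold change of treatment over DMSO control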;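 as to 10 uM KAM: median log10 fold change of treatment over DMSO control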
T4 construct: endogenous in cells; host or cells: K562
T4 sequence (P51955 1-445): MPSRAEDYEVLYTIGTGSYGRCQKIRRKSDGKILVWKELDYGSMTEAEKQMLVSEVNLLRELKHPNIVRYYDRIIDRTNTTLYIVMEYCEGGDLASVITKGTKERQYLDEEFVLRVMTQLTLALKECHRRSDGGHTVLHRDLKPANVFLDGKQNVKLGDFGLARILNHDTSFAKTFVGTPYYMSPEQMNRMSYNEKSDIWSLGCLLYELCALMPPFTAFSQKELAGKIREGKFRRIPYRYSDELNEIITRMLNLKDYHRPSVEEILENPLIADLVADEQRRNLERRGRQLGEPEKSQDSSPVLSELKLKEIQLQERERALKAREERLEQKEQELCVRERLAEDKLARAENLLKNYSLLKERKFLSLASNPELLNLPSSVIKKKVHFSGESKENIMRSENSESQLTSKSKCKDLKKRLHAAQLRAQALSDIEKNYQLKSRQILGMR
Method: as §1

[5] = biological target: T5, PEAK1 (Homo sapiens, UniProt Q9H792);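 as to 0.001 uM KAM: median log10 fold change of treatment over DMSO control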;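 as to 0.01 uM KAM: median log10 fold change of treatment over DMSO control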;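 as to 0.1 uM KAM: median log10 fold change of treatment over DMSO control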;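 as to 1 uM KAM: median log10 fold change of treatment over DMSO control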;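 as to 10 uM KAM: median log10 fold change of treatment over DMSO control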
T5 construct: endogenous in cells; host or cells: K562
Method: as §1

[6] = biological target: T6, CLK1 (Homo sapiens, UniProt P49759)
T6 construct: endogenous in cells; host or cells: K562
Method: as §1

[7] = biological target: T7, SRC (Homo sapiens, UniProt P12931)
T7 construct: endogenous in cells; host or cells: K562
Method: as §1

[8] = biological target: T8, PKD1 (Homo sapiens, UniProt P98161);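 as to 0.001 uM KAM: median log10 fold change of treatment over DMSO control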;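 as to 0.01 uM KAM: median log10 fold change of treatment over DMSO control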;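 as to 0.1 uM KAM: median log10 fold change of treatment over DMSO control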;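 as to 1 uM KAM: median log10 fold change of treatment over DMSO control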;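 as to 10 uM KAM: median log10 fold change of treatment over DMSO control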
T8 construct: endogenous in cells; host or cells: K562
Method: as §1

[9] = KAM 0.001-10 uM, read-out: RB50 (the source's name)
[10] = read-out: RB50 (the source's name)

T7 sequence (P12931 whole entry): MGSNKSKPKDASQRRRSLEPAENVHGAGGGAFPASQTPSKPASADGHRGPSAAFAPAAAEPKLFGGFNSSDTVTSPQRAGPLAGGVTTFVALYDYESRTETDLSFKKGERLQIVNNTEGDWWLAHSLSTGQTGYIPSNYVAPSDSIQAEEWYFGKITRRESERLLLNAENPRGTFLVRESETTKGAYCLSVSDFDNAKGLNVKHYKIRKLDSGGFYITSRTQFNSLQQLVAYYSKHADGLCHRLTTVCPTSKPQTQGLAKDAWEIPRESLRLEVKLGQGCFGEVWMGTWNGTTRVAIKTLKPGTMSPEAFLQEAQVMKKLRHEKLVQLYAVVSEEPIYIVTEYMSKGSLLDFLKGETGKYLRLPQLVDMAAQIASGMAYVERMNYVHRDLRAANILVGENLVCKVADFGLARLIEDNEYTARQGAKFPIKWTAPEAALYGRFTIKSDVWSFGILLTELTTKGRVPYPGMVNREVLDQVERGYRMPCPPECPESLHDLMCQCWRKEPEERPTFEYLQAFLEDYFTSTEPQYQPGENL
T1 sequence (P51617 whole entry): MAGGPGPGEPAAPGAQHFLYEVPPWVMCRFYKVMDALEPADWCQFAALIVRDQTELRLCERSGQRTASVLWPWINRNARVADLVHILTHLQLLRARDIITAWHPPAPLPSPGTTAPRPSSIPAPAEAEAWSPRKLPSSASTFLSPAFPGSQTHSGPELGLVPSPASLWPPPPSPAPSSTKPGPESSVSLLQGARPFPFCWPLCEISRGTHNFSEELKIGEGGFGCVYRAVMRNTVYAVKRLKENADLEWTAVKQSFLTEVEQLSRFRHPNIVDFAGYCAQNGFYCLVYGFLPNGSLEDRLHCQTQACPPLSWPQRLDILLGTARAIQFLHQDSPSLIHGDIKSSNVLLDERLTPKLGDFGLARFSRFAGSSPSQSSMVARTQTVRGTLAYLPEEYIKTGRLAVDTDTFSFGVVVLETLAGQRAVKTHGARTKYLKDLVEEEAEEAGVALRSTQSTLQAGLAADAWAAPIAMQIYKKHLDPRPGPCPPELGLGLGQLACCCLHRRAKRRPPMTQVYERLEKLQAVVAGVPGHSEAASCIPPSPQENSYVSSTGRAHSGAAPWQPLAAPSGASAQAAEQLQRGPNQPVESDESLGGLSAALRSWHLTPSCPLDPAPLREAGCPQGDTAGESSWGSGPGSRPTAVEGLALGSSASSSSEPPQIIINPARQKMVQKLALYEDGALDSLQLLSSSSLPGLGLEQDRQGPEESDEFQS
T3 sequence (P06241 whole entry): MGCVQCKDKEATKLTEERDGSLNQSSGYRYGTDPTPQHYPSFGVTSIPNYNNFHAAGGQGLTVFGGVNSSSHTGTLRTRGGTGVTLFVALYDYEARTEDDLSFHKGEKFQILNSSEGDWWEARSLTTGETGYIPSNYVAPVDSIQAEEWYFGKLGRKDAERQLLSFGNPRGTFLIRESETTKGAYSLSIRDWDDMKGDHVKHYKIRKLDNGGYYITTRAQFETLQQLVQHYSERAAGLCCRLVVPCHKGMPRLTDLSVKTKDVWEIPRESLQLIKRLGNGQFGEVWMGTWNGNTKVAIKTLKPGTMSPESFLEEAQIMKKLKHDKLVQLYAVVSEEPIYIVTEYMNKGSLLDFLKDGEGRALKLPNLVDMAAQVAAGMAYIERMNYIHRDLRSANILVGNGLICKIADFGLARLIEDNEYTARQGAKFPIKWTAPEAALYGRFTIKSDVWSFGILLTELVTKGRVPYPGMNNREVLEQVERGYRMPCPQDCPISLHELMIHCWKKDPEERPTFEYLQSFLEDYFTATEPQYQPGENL
T6 sequence (P49759 whole entry): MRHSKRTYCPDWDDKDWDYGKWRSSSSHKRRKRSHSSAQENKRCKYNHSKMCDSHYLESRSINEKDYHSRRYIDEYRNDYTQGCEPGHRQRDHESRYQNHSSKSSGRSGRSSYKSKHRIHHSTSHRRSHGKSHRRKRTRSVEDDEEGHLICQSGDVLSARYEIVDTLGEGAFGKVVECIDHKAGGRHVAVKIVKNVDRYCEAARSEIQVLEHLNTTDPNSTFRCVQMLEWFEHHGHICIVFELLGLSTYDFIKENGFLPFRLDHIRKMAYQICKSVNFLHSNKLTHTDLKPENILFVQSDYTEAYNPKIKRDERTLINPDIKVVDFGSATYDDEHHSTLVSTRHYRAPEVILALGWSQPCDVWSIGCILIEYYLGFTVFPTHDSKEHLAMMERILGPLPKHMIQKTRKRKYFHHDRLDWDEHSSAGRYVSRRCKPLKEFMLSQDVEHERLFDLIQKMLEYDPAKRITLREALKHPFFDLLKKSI
T5 sequence (Q9H792 whole entry): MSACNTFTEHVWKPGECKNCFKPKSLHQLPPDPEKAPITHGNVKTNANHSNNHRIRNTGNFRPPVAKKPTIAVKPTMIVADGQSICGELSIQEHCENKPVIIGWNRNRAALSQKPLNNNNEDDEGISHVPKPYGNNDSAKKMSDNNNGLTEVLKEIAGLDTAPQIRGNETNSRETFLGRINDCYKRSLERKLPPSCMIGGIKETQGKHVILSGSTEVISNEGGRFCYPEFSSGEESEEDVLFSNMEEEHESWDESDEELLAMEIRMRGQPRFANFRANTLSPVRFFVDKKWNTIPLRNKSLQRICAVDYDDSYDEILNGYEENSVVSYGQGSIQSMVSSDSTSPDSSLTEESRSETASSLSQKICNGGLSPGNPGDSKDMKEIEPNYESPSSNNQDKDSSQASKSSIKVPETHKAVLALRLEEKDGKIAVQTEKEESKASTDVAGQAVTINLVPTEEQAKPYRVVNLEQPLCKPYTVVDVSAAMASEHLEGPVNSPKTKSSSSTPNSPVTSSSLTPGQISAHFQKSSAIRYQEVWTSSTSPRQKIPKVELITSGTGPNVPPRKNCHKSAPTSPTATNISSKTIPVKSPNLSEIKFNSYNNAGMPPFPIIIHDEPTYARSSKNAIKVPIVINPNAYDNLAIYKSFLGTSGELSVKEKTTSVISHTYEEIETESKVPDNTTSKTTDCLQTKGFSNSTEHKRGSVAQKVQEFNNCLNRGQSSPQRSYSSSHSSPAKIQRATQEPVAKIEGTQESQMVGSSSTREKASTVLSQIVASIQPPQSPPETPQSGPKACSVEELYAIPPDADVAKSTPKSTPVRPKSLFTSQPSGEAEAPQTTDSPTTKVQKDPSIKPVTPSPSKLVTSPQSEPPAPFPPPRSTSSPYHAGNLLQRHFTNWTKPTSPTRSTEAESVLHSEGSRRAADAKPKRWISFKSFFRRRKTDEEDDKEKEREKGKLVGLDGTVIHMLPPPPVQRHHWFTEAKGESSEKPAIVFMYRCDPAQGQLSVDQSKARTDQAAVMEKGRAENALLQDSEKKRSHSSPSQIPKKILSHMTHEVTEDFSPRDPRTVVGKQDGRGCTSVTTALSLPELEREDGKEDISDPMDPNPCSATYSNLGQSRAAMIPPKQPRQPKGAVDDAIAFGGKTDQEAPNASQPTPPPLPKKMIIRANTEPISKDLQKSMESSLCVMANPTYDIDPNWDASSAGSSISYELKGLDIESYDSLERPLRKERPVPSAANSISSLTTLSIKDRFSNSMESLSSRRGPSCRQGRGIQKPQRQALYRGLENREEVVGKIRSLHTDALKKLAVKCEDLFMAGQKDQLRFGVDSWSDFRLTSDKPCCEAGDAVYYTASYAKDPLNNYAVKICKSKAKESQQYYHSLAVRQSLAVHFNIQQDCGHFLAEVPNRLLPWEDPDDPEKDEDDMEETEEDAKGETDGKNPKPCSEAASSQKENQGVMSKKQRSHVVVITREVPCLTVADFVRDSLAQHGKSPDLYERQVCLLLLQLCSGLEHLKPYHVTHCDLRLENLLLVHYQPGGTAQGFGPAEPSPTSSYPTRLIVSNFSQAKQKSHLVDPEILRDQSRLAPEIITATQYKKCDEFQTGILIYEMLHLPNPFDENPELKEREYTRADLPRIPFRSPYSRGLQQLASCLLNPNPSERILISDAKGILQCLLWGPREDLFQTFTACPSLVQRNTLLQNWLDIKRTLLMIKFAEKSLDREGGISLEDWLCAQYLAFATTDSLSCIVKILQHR

In the case of `N#CCc1ccc(Nc2nc(NCCCN)cc(Nc3cc(C4CC4)[nH]n3)n2)cc1` [KAM], the pIC50 [1, 9] was 5.22, the “0.001 uM KAM” value ([1]; relative to 0 uM KAM = 0) was -0.01461 and the “0.01 uM KAM” value ([1]; relative to 0 uM KAM = 0) was -0.006177. For the same molecule, the “0.1 uM KAM” value ([1]; relative to 0 uM KAM = 0) was -0.1059, the “1 uM KAM” value ([1]; relative to 0 uM KAM = 0) was -0.1722 and the “10 uM KAM” value ([1]; relative to 0 uM KAM = 0) was -0.3131. The pIC50 [2, 9] was < 5.00, the “0.001 uM KAM” value ([2]; relative to 0 uM KAM = 0) was -0.004094 and the “0.01 uM KAM” value ([2]; relative to 0 uM KAM = 0) was -0.0009308. For the same molecule, the “0.1 uM KAM” value ([2]; relative to 0 uM KAM = 0) was 0.03838, the “1 uM KAM” value ([2]; relative to 0 uM KAM = 0) was 0.1564 and the “10 uM KAM” value ([2]; relative to 0 uM KAM = 0) was 0.04645. The “median Log10 fold change” value ([3]; 0.001 uM KAM) was -0.01373, the “median Log10 fold change” value ([3]; 0.01 uM KAM) was 0.006068 and the “median Log10 fold change” value ([3]; 0.1 uM KAM) was -0.1646. The “median Log10 fold change” value ([3]; 1 uM KAM) was -0.3588, the “median Log10 fold change” value ([3]; 10 uM KAM) was -0.4538 and the pIC50 [3, 10] was 6.12. The pIC50 [4, 9] was 5.23, the “0.001 uM KAM” value ([4]; relative to 0 uM KAM = 0) was 0.005896 and the “0.01 uM KAM” value ([4]; relative to 0 uM KAM = 0) was 0.02457. For the same molecule, the “0.1 uM KAM” value ([4]; relative to 0 uM KAM = 0) was -0.07556, the “1 uM KAM” value ([4]; relative to 0 uM KAM = 0) was -0.1875 and the “10 uM KAM” value ([4]; relative to 0 uM KAM = 0) was -0.3106. The pIC50 [5, 9] was < 5.00, the “0.001 uM KAM” value ([5]; relative to 0 uM KAM = 0) was 0.04051 and the “0.01 uM KAM” value ([5]; relative to 0 uM KAM = 0) was 0.04298. For the same molecule, the “0.1 uM KAM” value ([5]; relative to 0 uM KAM = 0) was 0.03477, the “1 uM KAM” value ([5]; relative to 0 uM KAM = 0) was 0.09337 and the “10 uM KAM” value ([5]; relative to 0 uM KAM = 0) was 0.04238. The “median Log10 fold change” value ([6]; 0.001 uM KAM) was 0.02063, the “median Log10 fold change” value ([6]; 0.01 uM KAM) was -0.05735 and the “median Log10 fold change” value ([6]; 0.1 uM KAM) was -0.2418. The “median Log10 fold change” value ([6]; 1 uM KAM) was -0.3053, the “median Log10 fold change” value ([6]; 10 uM KAM) was -0.4001 and the pIC50 [6, 10] was 6.07. The “median Log10 fold change” value ([7]; 0.001 uM KAM) was -0.003111, the “median Log10 fold change” value ([7]; 0.01 uM KAM) was -0.02243 and the “median Log10 fold change” value ([7]; 0.1 uM KAM) was -0.1125. The “median Log10 fold change” value ([7]; 1 uM KAM) was -0.3083, the “median Log10 fold change” value ([7]; 10 uM KAM) was -0.5006 and the pIC50 [7, 10] was 5.96. The pIC50 [8, 9] was < 5.00, the “0.001 uM KAM” value ([8]; relative to 0 uM KAM = 0) was -0.05857 and the “0.01 uM KAM” value ([8]; relative to 0 uM KAM = 0) was 0.006072. For the same molecule, the “0.1 uM KAM” value ([8]; relative to 0 uM KAM = 0) was -0.01241, the “1 uM KAM” value ([8]; relative to 0 uM KAM = 0) was -0.0439 and the “10 uM KAM” value ([8]; relative to 0 uM KAM = 0) was 0.04844.
